In data set [1] the test system is Malassezia furfur (CBS 7982). The data set can be described thus: In vitro antifungal potency (MIC), growth read by absorbance at 600 nm. It is filed as cell-based. Conditions: for MIC (ppm) against Malassezia furfur / MIC: mDixon medium, 31° C., approximately 72 hours; for MIC: CBS7982, read-out: MIC (ppm) against Malassezia furfur. How it is done: (§1) Malassezia furfur (CBS 7982), Malassezia sympodialis (ATCC 42132), and Malassezia pachydermatis (CBS 1879) is grown for approximately 24 hours in a 250 ml vent cap polycarbonate Erlenmeyer flask containing approximately 100 ml of mDixon medium and 5 ml of a fully grown Malassezia culture is prepared using the same conditions as described. The cells are diluted by mixing 2.5 ml of the 24 hour-old culture per 50 ml of mDixon medium. A Versette robot (ThermoFisher Scientific) is used to transfer 292.5 μl of the dilute cells into each well of a Beckman 267007 polypropylene round bottom deep well plate.
(§2) All compounds are sourced from Sigma Aldrich (St. Louis, Mo.) and prepared as 10 mg/ml in DMSO. A semipermeable aeraseal membrane is applied to the plate which is then covered with water-soaked cotton batting. The samples are shaken at 31° C. on a Heidolph Titramax 100 shaker at 1500 rpm for approximately 72 hours. The plates are shaken at 1250 rpm on an Eppendorf MixMate shaker to disperse the cells before 200 μl of cells is transferred to a Corning 3596 polystyrene plate. The samples are shaken again at 950 rpm on a MixMate shaker before the absorbance at 600 nm is read using a Molecular Devices SpectraMax plate reader.

The test system of data set [2] is Malassezia pachydermatis (CBS 1879). The description is as above. It counts as cell-based. Particulars: mDixon medium, 31° C., approximately 72 hours; for MIC: Malassezia pachydermatis, CBS1879, read-out: MIC (ppm) against Malassezia pachydermatis. The protocol: as §1, §2
In data set [3] the test system is Malassezia sympodialis (ATCC 42132). The data set is described as above. It is filed as cell-based. Particulars: mDixon medium, 31° C., approximately 72 hours; for MIC: Malassezia sympodialis, ATCC42132, read-out: MIC (ppm) against Malassezia sympodialis. How it is done:
as §1, §2

Data set [4] deals with Candida albicans (ATCC 10231). The data set is described as above. It is filed as cell-based. Conditions: Sabouraud Broth, 31° C., evaluated at concentrations up to 250 ppm; for MIC: Candida albicans, ATCC10231, read-out: MIC (ppm) against Candida albicans. How it is done:
Candida albicans (ATCC 10231) is grown overnight in Sabouraud Broth (SDB). 190 μl of SDB is added per well of a Corning 3596 polystyrene plate followed by 5 μl of test material as two-fold dilutions in DMSO and 5 μl C. albicans. The cells are incubated at 31° C., without shaking, and wrapped in wet cotton batting. The plates are shaken for 30 seconds at 950 rpm on a MixMate shaker. The absorbance at 600 nm is read on a Spectramax plate reader.
as §2

The subject of data set [5] is Aspergillus brasiliensis (ATCC 16404). The data set can be described thus: In vitro antifungal potency (MIC), growth graded visually. It counts as cell-based. Particulars: spores in SDB, 25° C., approximately 96 h; for MIC: Aspergillus brasiliensis, ATCC16404, read-out: MIC (ppm) against Aspergillus brasiliensis. The protocol:
Aspergillus brasiliensis (ATCC 16404): Aspergillus spores are prepared by inoculating a Sabouraud agar plate and incubating at 25° C. for 6-10 days, after which, 10 mL of Saline+Tween-80 is added to dislodge the spores. The suspension is then filtered through 2 layers of sterile gauze. The spores are diluted two-fold in SDB. 190 μl of SDB is added to a Corning 3596 polystyrene plate followed by 5 μl of test compound per well and 5 μl of the diluted spores. The plates are incubated at 25° C. for approximately 96 h at high humidity. Growth is graded visually as either growth or no growth.
as §2

Another data set deals with Malassezia yeasts. The data set can be described thus: In vitro antifungal potency (MIC), statements across the Malassezia species tested. It counts as cell-based. How it is done: as §1, §2
The conditions of data set [6]: cited from earlier work.

The structures appear in SMILES notation. Converted amounts (≈) assume the structure as drawn.

For the compound `CO/C=C(/C(=O)OC)c1ccccc1Oc1cc(Oc2ccccc2C#N)ncn1` [Azoxystrobin], the “MIC (ppm) against Malassezia furfur” value in data set [1] amounted to 0.49 ppm. For the same compound, in data set [2], the “MIC (ppm) against Malassezia pachydermatis” value is on record as 0.98 ppm. Further, the “MIC (ppm) against Malassezia sympodialis” value in data set [3] turned out to be 0.12 ppm. For the same compound, the “MIC (ppm) against Candida albicans” value in data set [4] is on record as above 250 ppm. The “MIC (ppm) against Aspergillus brasiliensis” value in data set [5] is given as 0.24 ppm. Also, the “MIC against Malassezia yeasts (all species tested)” value in the data set with Malassezia yeasts (M. furfur, M. sympodialis, M. pachydermatis) is “less than 1.0 ppm”. Moreover, the “times more potent than pyraclostrobin (MIC against Malassezia, in all cases)” value in the data set on Malassezia yeasts (ratio of MICs, all three Malassezia species) is recorded as 4 times. In addition, in data set [6], the solubility in water entry was “low”.

Regarding `CNC(=O)/C(=N/OC)c1ccccc1COc1cc(C)ccc1C` [Dimoxystrobin, dimoxystrobin], the “MIC (ppm) against Malassezia furfur” value in data set [1] was determined as 7.81 ppm. Also, the “MIC (ppm) against Malassezia pachydermatis” value in data set [2] is given as 31.25 ppm. In addition, the “MIC (ppm) against Malassezia sympodialis” value in data set [3] was 1.95 ppm. Also, in data set [4], the “MIC (ppm) against Candida albicans” value is recorded as above 250 ppm. Moreover, the “MIC (ppm) against Aspergillus brasiliensis” value in data set [5] came out at 0.24 ppm.

Consider `CO/N=C(/C1=NOCCO1)c1ccccc1Oc1ncnc(Oc2ccccc2Cl)c1F` [Fluoxastrobin, fluoxastrobin], for which the minimum inhibitory concentration (MIC) in data set [1] (Malassezia furfur) is 3.91 µg/mL (≈ 8.52 µM); in data set [2], 7.81 µg/mL (≈ 17 µM); in data set [3] it was 1.95 µg/mL (≈ 4.25 µM); in data set [4] it was above 250 µg/mL; in data set [5], 0.49 µg/mL (≈ 1.07 µM).

On to `CO/N=C(/C(=O)OC)c1ccccc1COc1ccccc1C` [Kresoxim-methyl, kresoxim methyl], for which the minimal inhibitory concentration (MIC) in data set [1] (Malassezia furfur) is 15.6 µg/mL (≈ 49.9 µM); in data set [2] it was 31.2 µg/mL (≈ 99.7 µM); in data set [3], 3.91 µg/mL (≈ 12.5 µM); in data set [4], above 250 µg/mL; in data set [5] it was 0.98 µg/mL (≈ 3.13 µM).

Take `CNC(=O)/C(=N/OC)c1ccccc1CO/N=C(C)/C(=N/OC)C(/C)=N/OC` [Orysastrobin, orysastrobin]: in data set [1], the “MIC (ppm) against Malassezia furfur” value came out at 31.25 ppm. In addition, the “times less potent than azoxystrobin (MIC against Malassezia furfur)” value in data set [1] (ratio of MICs, Malassezia furfur) turned out to be 64 times. Moreover, in data set [2], the “MIC (ppm) against Malassezia pachydermatis” value was 125 ppm. Also, the “MIC (ppm) against Malassezia sympodialis” value in data set [3] amounted to 7.81 ppm. The “MIC (ppm) against Candida albicans” value in data set [4] is above 250 ppm. Besides, the “MIC (ppm) against Aspergillus brasiliensis” value in data set [5] stood at 31.25 ppm.

For the compound `COC(=O)N(OC)c1ccccc1COc1ccn(-c2ccc(Cl)cc2)n1` [Pyraclostrobin, pyraclostrobin], the MIC in data set [1] (Malassezia furfur) was 1.95 µg/mL (≈ 5.03 µM); in data set [2], 3.91 µg/mL (≈ 10.1 µM); in data set [3] it was 0.49 µg/mL (≈ 1.26 µM); in data set [4], above 250 µg/mL; in data set [5], 0.02 µg/mL (≈ 0.0516 µM).

As for `CON=C(C(=O)OC)c1ccccc1CON=C(C)c1cccc(C(F)(F)F)c1` [Trifloxystrobin, trifloxystrobin], the minimal inhibitory concentration (MIC) in data set [1] (Malassezia furfur) is 15.6 µg/mL (≈ 38.3 µM); in data set [2] it was 31.2 µg/mL (≈ 76.5 µM); in data set [3], 1.95 µg/mL (≈ 4.78 µM); in data set [4], above 250 µg/mL; in data set [5], 31.2 µg/mL (≈ 76.5 µM).
